Measured values published in the supplement of paper PMC9663587.

What was measured:
[1] = compound: CC(=O)c1c(C)c2cnc(Nc3ccc(N4CCN(CCOCCOCCOCCNC(=O)COc5cccc6c5C(=O)N(C5CCC(=O)NC5=O)C6=O)CC4)cn3)nc2n(C2CCCC2)c1=O [BSJ-03-123]; test: GR value, 72 h; higher = faster growth (1 = untreated, <0 = killing);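 further: breast cancer and non-malignant breast epithelial lines, nine half-log doses, viable cells counted by Hoechst and LIVE/DEAD dye imaging versus time-zero plates and DMSO controls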
[2] = compound: C=CC(=O)Nc1ccc(C(=O)Nc2[nH]nc3c2CN(C(=O)N[C@H](CN(C)C)c2ccccc2)C3(C)C)cc1 [YKL-5-124]; test: as above
[3] = compound: CCN1CCN(Cc2ccc(Nc3ncc(F)c(-c4cc(F)c5nc(C)n(C(C)C)c5c4)n3)nc2)CC1; test: as above
[4] = compound: T1, CN(C)C/C=C/C(=O)Nc1ccc(C(=O)N2CCC[C@@H](Nc3ncc(Cl)c(-c4c[nH]c5ccccc45)n3)C2)cc1 [THZ531]; test: as above
[5] = compound: CCc1cnn2c(NCc3ccc[n+]([O-])c3)cc(N3CCCC[C@H]3CCO)nc12; test: as above
[6] = compound: CN(C)C/C=C/C(=O)Nc1ccc(C(=O)Nc2cccc(Nc3ncc(Cl)c(-c4c[nH]c5ccccc45)n3)c2)cc1 [THZ1]; test: as above
[7] = compound: CC(=O)c1c(C)c2cnc(Nc3ccc(N4CCNCC4)cn3)nc2n(C2CCCC2)c1=O; test: as above
[8] = compound: CN(C)C(=O)c1cc2cnc(Nc3ccc(N4CCNCC4)cn3)nc2n1C1CCCC1 [LEE011/Ribociclib]; test: as above
[9] = compound: CN1CCN(C(=O)c2ccc3cc(CCNc4ncnc5ccc(C#N)cc45)ccc3c2)CC1 [senexin b]
[10] = compound: O=C1NC(=O)[C@@H](c2cn3c4c(cccc24)CCC3)[C@@H]1c1c[nH]c2ccccc12 [Tivantinib/ARQ197]
[11] = compound: T1, THZ531
[12] = compound: CN(C)C/C=C/C(=O)Nc1ccc(O[C@@H]2CCC[C@@H](Nc3ncc(Cl)c(-c4c[nH]c5ccccc45)n3)C2)cc1 [BSJ-01-175]
[13] = compound: CS(=O)(=O)N1CCN(Cc2cc3nc(-c4cccc5[nH]ncc45)nc(N4CCOCC4)c3s2)CC1 [Pictilisib/GDC0941]
[14] = compound: CNCc1ccc(-c2[nH]c3cc(F)cc4c3c2CCNC4=O)cc1 [Rucaparib]
[15] = compound: C[C@@H]1COCCN1c1cc(C2([S@](C)(=N)=O)CC2)nc(-c2cc[nH]c3nccc2-3)n1 [AZD6738]
[16] = compound: COc1cc2c(Oc3ccc4[nH]c(C)cc4c3F)ncnc2cc1OCCCN1CCCC1 [Cediranib/AZD2171]
[17] = compound: Cc1cc(Nc2ncc(Cl)c(Nc3ccccc3S(=O)(=O)C(C)C)n2)c(OC(C)C)cc1C1CCNCC1 [Ceritinib/LDK378]
[18] = compound: CC(=O)O[C@H]1C(=O)[C@@]2(C)[C@H]([C@H](OC(=O)c3ccccc3)[C@]3(O)C[C@H](OC(=O)[C@H](O)[C@@H](NC(=O)c4ccccc4)c4ccccc4)C(C)=C1C3(C)C)[C@]1(OC(C)=O)CO[C@@H]1C[C@@H]2O [Paclitaxel]
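Wherever GR50, 72 h is given: breast cancer and non-malignant breast epithelial cell lines, Deep Dye Drop or Dye Drop imaging, nine half-log doses, GR normalized to time-zero plates and DMSO-only controls.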

HCC1937
GR value ([1]; 0.001 µM): 1.11 GR
GR value ([1]; 0.003162 µM): 1.04 GR
GR value ([1]; 0.01 µM): 0.933 GR
GR value ([1]; 0.03162 µM): 1.05 GR
GR value ([1]; 0.1 µM): 0.961 GR
GR value ([1]; 0.3162 µM): 1.03 GR
GR value ([1]; 1 µM): 0.918 GR
GR value ([1]; 3.162 µM): 0.977 GR
GR value ([1]; 10 µM): 0.525 GR
GR value ([2]; 0.001 µM): 0.676 GR
GR value ([2]; 0.003162 µM): 0.451 GR
GR value ([2]; 0.01 µM): 0.249 GR
GR value ([2]; 0.03162 µM): 0.165 GR
GR value ([2]; 0.1 µM): 0.0669 GR
GR value ([2]; 0.3162 µM): 0.0473 GR
GR value ([2]; 1 µM): -0.0273 GR
GR value ([2]; 3.162 µM): -0.052 GR
GR value ([2]; 10 µM): -0.196 GR
GR value ([3]; 0.001 µM): 1.03 GR
GR value ([3]; 0.003162 µM): 1.04 GR
GR value ([3]; 0.01 µM): 1.06 GR
GR value ([3]; 0.03162 µM): 1.08 GR
GR value ([3]; 0.1 µM): 0.973 GR
GR value ([3]; 0.3162 µM): 0.941 GR
GR value ([3]; 1 µM): 0.81 GR
GR value ([3]; 3.162 µM): 0.598 GR
GR value ([3]; 10 µM): 0.321 GR
GR value ([4]; 0.0001 µM): 0.85 GR
GR value ([4]; 0.0003162 µM): 1 GR
GR value ([4]; 0.001 µM): 0.958 GR
GR value ([4]; 0.003162 µM): 1.01 GR
GR value ([4]; 0.01 µM): 1.09 GR
GR value ([4]; 0.03162 µM): 1.16 GR
GR value ([4]; 0.1 µM): 0.954 GR
GR value ([4]; 0.3162 µM): 0.219 GR
GR value ([4]; 1 µM): -0.302 GR
GR value ([5]; 0.0001 µM): 1.02 GR
GR value ([5]; 0.0003162 µM): 1.03 GR
GR value ([5]; 0.001 µM): 1.06 GR
GR value ([5]; 0.003162 µM): 1.1 GR
GR value ([5]; 0.01 µM): 0.983 GR
GR value ([5]; 0.03162 µM): 0.0186 GR
GR value ([5]; 0.1 µM): -0.185 GR
GR value ([5]; 0.3162 µM): -0.211 GR
GR value ([5]; 1 µM): -0.206 GR
GR value ([6]; 0.0001 µM): 0.926 GR
GR value ([6]; 0.0003162 µM): 0.922 GR
GR value ([6]; 0.001 µM): 0.98 GR
GR value ([6]; 0.003162 µM): 1.05 GR
GR value ([6]; 0.01 µM): 1.14 GR
GR value ([6]; 0.03162 µM): 0.808 GR
GR value ([6]; 0.1 µM): 0.104 GR
GR value ([6]; 0.3162 µM): -0.107 GR
GR value ([6]; 1 µM): -0.38 GR
GR value ([7]; 0.0003162 µM): 1.04 GR
GR value ([7]; 0.001 µM): 1.1 GR
GR value ([7]; 0.003162 µM): 1.13 GR
GR value ([7]; 0.01 µM): 1.1 GR
GR value ([7]; 0.03162 µM): 1.06 GR
GR value ([7]; 0.1 µM): 1.03 GR
GR value ([7]; 0.3162 µM): 0.99 GR
GR value ([7]; 1 µM): 1.07 GR
GR value ([7]; 3.162 µM): 1.07 GR
GR value ([8]; 0.001 µM): 0.945 GR
GR value ([8]; 0.003162 µM): 0.893 GR
GR value ([8]; 0.01 µM): 1.14 GR
GR value ([8]; 0.03162 µM): 1.02 GR
GR value ([8]; 0.1 µM): 1 GR
GR value ([8]; 0.3162 µM): 0.875 GR
GR value ([8]; 1 µM): 0.964 GR
GR value ([8]; 3.162 µM): 1.02 GR
GR value ([8]; 10 µM): 1.11 GR
GR50, 72 h [9]: 4.95 µM
GR50, 72 h [10]: 0.649 µM
GR50, 72 h [11]: 0.26 µM
GR50, 72 h [12]: 0.302 µM
GR50, 72 h [13]: 2.42 µM
GR50, 72 h [14]: > 10 µM
GR50, 72 h [15]: 9.08 µM
GR50, 72 h [16]: 8.4 µM
GR50, 72 h [17]: 3.53 µM
GR50, 72 h [18]: 0.00245 µM

HS578T
GR value ([1]; 0.001 µM): 0.971 GR
GR value ([1]; 0.003162 µM): 0.905 GR
GR value ([1]; 0.01 µM): 0.883 GR
GR value ([1]; 0.03162 µM): 0.844 GR
GR value ([1]; 0.1 µM): 0.79 GR
GR value ([1]; 0.3162 µM): 0.74 GR
GR value ([1]; 1 µM): 0.626 GR
GR value ([1]; 3.162 µM): 0.521 GR
GR value ([1]; 10 µM): -0.29 GR
GR value ([2]; 0.001 µM): 0.455 GR
GR value ([2]; 0.003162 µM): 0.364 GR
GR value ([2]; 0.01 µM): 0.311 GR
GR value ([2]; 0.03162 µM): 0.239 GR
GR value ([2]; 0.1 µM): 0.242 GR
GR value ([2]; 0.3162 µM): 0.195 GR
GR value ([2]; 1 µM): 0.167 GR
GR value ([2]; 3.162 µM): 0.0237 GR
GR value ([2]; 10 µM): -0.462 GR
GR value ([3]; 0.001 µM): 0.969 GR
GR value ([3]; 0.003162 µM): 0.776 GR
GR value ([3]; 0.01 µM): 0.699 GR
GR value ([3]; 0.03162 µM): 0.521 GR
GR value ([3]; 0.1 µM): 0.442 GR
GR value ([3]; 0.3162 µM): 0.268 GR
GR value ([3]; 1 µM): 0.217 GR
GR value ([3]; 3.162 µM): -0.238 GR
GR value ([3]; 10 µM): -0.576 GR
GR value ([4]; 0.0001 µM): 1.04 GR
GR value ([4]; 0.0003162 µM): 0.978 GR
GR value ([4]; 0.001 µM): 1 GR
GR value ([4]; 0.003162 µM): 1.03 GR
GR value ([4]; 0.01 µM): 0.993 GR
GR value ([4]; 0.03162 µM): 0.798 GR
GR value ([4]; 0.1 µM): 0.051 GR
GR value ([4]; 0.3162 µM): -0.213 GR
GR value ([4]; 1 µM): -0.252 GR
GR value ([5]; 0.0001 µM): 0.955 GR
GR value ([5]; 0.0003162 µM): 1.04 GR
GR value ([5]; 0.001 µM): 0.986 GR
GR value ([5]; 0.003162 µM): 1.02 GR
GR value ([5]; 0.01 µM): 0.313 GR
GR value ([5]; 0.03162 µM): -0.21 GR
GR value ([5]; 0.1 µM): -0.191 GR
GR value ([5]; 0.3162 µM): -0.216 GR
GR value ([5]; 1 µM): -0.237 GR
GR value ([6]; 0.0001 µM): 0.977 GR
GR value ([6]; 0.0003162 µM): 1.03 GR
GR value ([6]; 0.001 µM): 0.99 GR
GR value ([6]; 0.003162 µM): 1.03 GR
GR value ([6]; 0.01 µM): 0.784 GR
GR value ([6]; 0.03162 µM): 0.125 GR
GR value ([6]; 0.1 µM): -0.199 GR
GR value ([6]; 0.3162 µM): -0.251 GR
GR value ([6]; 1 µM): -0.371 GR
GR value ([7]; 0.0003162 µM): 1.07 GR
GR value ([7]; 0.001 µM): 0.988 GR
GR value ([7]; 0.003162 µM): 0.928 GR
GR value ([7]; 0.01 µM): 0.764 GR
GR value ([7]; 0.03162 µM): 0.666 GR
GR value ([7]; 0.1 µM): 0.569 GR
GR value ([7]; 0.3162 µM): 0.481 GR
GR value ([7]; 1 µM): 0.423 GR
GR value ([7]; 3.162 µM): 0.302 GR
GR value ([8]; 0.001 µM): 0.825 GR
GR value ([8]; 0.003162 µM): 0.861 GR
GR value ([8]; 0.01 µM): 0.73 GR
GR value ([8]; 0.03162 µM): 0.672 GR
GR value ([8]; 0.1 µM): 0.63 GR
GR value ([8]; 0.3162 µM): 0.621 GR
GR value ([8]; 1 µM): 0.591 GR
GR value ([8]; 3.162 µM): 0.513 GR
GR value ([8]; 10 µM): 0.373 GR
GR50, 72 h [9]: > 10 µM
GR50, 72 h [10]: 0.337 µM
GR50, 72 h [11]: 0.0496 µM
GR50, 72 h [12]: 0.0056 µM
GR50, 72 h [13]: 1.16 µM
GR50, 72 h [14]: > 10 µM
GR50, 72 h [15]: 5.26 µM
GR50, 72 h [16]: 0.551 µM
GR50, 72 h [17]: 0.965 µM
GR50, 72 h [18]: 0.00102 µM
